Measured values from ChEMBL document CHEMBL5500324, “The potential of marine-derived piperazine alkaloids: Sources, structures and bioactivities” (Eur J Med Chem, 2024).
Converted amounts (≈) assume the structure as drawn.

Tests used:
[1] = tested on: HeLa; test: Cytotoxicity against human HeLa cells assessed as reduction in cell viability measured for 24 hrs by MTT assay; type: functional, cell-based
[2] = tested on: K562; test: Antiproliferative activity against human K562 cells assessed as reduction in cell growth incubated for 72 hrs by MTT assay; type: functional, cell-based; conditions: K562, 72 h
[3] = tested on: HL-60; test: Antiproliferative activity against human HL-60 cells assessed as reduction in cell growth incubated for 72 hrs by MTT assay; type: functional, cell-based; conditions: HL-60, 72 h
[4] = tested on: BGC-823; test: Cytotoxicity against human BGC-823 cells assessed as reduction in cell growth measured after 72 hrs by MTT assay; type: functional, cell-based; conditions: BGC-823, 72 h
[5] = tested on: MCF7; test: Cytotoxicity against human MCF7 cells assessed as reduction in cell growth measured after 72 hrs by MTT assay; type: functional, cell-based; conditions: MCF7, 72 h
[6] = tested on: HEK293; test: Cytotoxicity against HEK293 cells assessed as cell growth inhibition; type: functional, cell-based; conditions: Homo sapiens
[7] = tested on: HCT-116; test: Cytotoxicity against human HCT-116 cells assessed as reduction in cell viability incubated for 24 hrs by MTT assay; type: functional, cell-based; conditions: HCT-116, 24 h
[8] = tested on: RKO; test: Cytotoxicity against human RKO cells assessed as inhibition of cell growth measured after 48 hrs by MTT assay; type: functional, cell-based
[9] = tested on: SF-268; test: Cytotoxicity against human SF-268 cells assessed as reduction in cell growth incubated for 48 hrs by SRB assay; type: functional, cell-based; conditions: SF-268, 48 h
[10] = tested on: MCF7; test: Cytotoxicity against human MCF7 cells assessed as reduction in cell growth incubated for 48 hrs by SRB assay; type: functional, cell-based; conditions: MCF7, 48 h
[11] = tested on: NCI-H460; test: Cytotoxicity against human NCI-H460 cells assessed as reduction in cell growth incubated for 48 hrs by SRB assay; type: functional, cell-based; conditions: NCI-H460, 48 h
[12] = tested on: HepG2; test: Cytotoxicity against human HepG2 cells assessed as reduction in cell growth incubated for 48 hrs by SRB assay; type: functional, cell-based; conditions: HepG2, 48 h
[13] = tested on: SF-268; test: Cytotoxicity against human SF-268 cells assessed as reduction in cell growth incubated for 72 hrs by SRB assay; type: functional, cell-based; conditions: SF-268, 72 h
[14] = tested on: MCF7; test: Cytotoxicity against human MCF7 cells assessed as reduction in cell growth incubated for 72 hrs by SRB assay; type: functional, cell-based; conditions: MCF7, 72 h
[15] = tested on: HepG2; test: Cytotoxicity against human HepG2 cells assessed as reduction in cell growth incubated for 72 hrs by SRB assay; type: functional, cell-based; conditions: HepG2, 72 h
[16] = tested on: NCI-H460; test: Cytotoxicity against human NCI-H460 cells assessed as reduction in cell growth incubated for 72 hrs by SRB assay; type: functional, cell-based; conditions: NCI-H460, 72 h
[17] = tested on: ECV-304; test: Cytotoxicity against human ECV-304 cells; type: functional, cell-based
[18] = tested on: NCI-H929; test: Cytotoxicity against human NCI-H929 cells; type: functional, cell-based
[19] = tested on: CAL-27; test: Cytotoxicity against human CAL-27 cells; type: functional, cell-based
[20] = tested on: A549; test: Cytotoxicity against human A549 cells; type: functional, cell-based
[21] = tested on: P388; test: Cytotoxicity against mouse P388 cells assessed as inhibition of cell growth; type: functional, cell-based
[22] = tested on: A549; test: Cytotoxicity against human A549 cells assessed as inhibition of cell growth; type: functional, cell-based
[23] = tested on: HT-29; test: Cytotoxicity against human HT-29 cells assessed as inhibition of cell growth; type: functional, cell-based
[24] = tested on: SK-MEL-28; test: Cytotoxicity against human SK-MEL-28 cells assessed as inhibition of cell growth; type: functional, cell-based
[25] = Cytotoxicity against human Huh7.5 cells assessed as reduction in cell viability incubated for 72 hrs by CCK-8 assay; type: toxicity, cell-based, Huh-7.5
[26] = tested on: SK-MEL-28; test: Cytotoxicity against human SK-MEL-28 assessed as inhibition of cell growth incubated for 48 hrs; type: functional, cell-based; conditions: SK-MEL-28, 48 h
[27] = tested on: P388; test: Cytotoxicity against mouse P388 cells assessed as inhibition of cell growth incubated for 48 hrs; type: functional, cell-based; conditions: P388, 48 h
[28] = tested on: A549; test: Cytotoxicity against human A549 assessed as inhibition of cell growth incubated for 48 hrs; type: functional, cell-based; conditions: A549, 48 h
[29] = tested on: HT-29; test: Cytotoxicity against human HT-29 assessed as inhibition of cell growth incubated for 48 hrs; type: functional, cell-based; conditions: HT-29, 48 h
[30] = tested on: BC; test: Cytotoxicity against human BC cells assessed as inhibition of cell growth; type: functional, cell-based
[31] = tested on: HCT-116; test: Antiproliferative activity against human HCT-116 cells assessed as reduction in cell viability incubated for 24 hrs by MTT assay; type: functional, cell-based; conditions: HCT-116, 24 h
[32] = tested on: QG-56; test: Cytotoxicity against human QG-56 cells assessed as reduction in cell growth incubated for 24 hrs by MTT assay; type: functional, cell-based; conditions: QG-56, 24 h
[33] = tested on: DU-145; test: Cytotoxicity against human DU-145 cells assessed as cell growth inhibition measured after 48 hrs by MTT assay; type: functional, cell-based; conditions: DU-145, 48 h
[34] = tested on: SF-268; test: Cytotoxicity against human SF-268 cells assessed as reduction in cell viability incubated for 72 hrs by SRB assay; type: functional, cell-based; conditions: SF-268, 72 h
[35] = tested on: HepG2; test: Cytotoxicity against human HepG2 cells assessed as reduction in cell viability incubated for 72 hrs by SRB assay; type: functional, cell-based; conditions: HepG2, 72 h
[36] = tested on: HL-60; test: Cytotoxicity against human HL-60 cells assessed as reduction in cell growth; type: functional, cell-based
[37] = tested on: U-937; test: Cytotoxicity against human U-937 cells assessed as inhibition of cell growth; type: functional, cell-based
[38] = tested on: T47D; test: Antiproliferative activity against human T47D cells incubated for 48 hrs by MTT assay; type: functional, cell-based
[39] = tested on: A549; test: Cytotoxicity against human A549 cells assessed as reduction in cell viability incubated for 48 hrs by Celltiter-Glo assay; type: functional, cell-based; conditions: A549, 48 h
[40] = tested on: HCT-116; test: Cytotoxicity against human HCT-116 cells assessed as reduction in cell viability incubated for 48 hrs by Celltiter-Glo assay; type: functional, cell-based; conditions: HCT-116, 48 h
[41] = Cytotoxicity against human HaCaT cells incubated for 24 hrs by MTS assay; type: toxicity, cell-based
[42] = tested on: P388; test: Cytotoxicity against mouse P388 cells assessed as cell growth inhibition; type: functional; conditions: read-out: ED50 (the source's name)
[43] = tested on: U-937; test: Cytotoxicity against human U-937 cells assessed as reduction in cell viability incubated for 72 hrs by MTT assay; type: functional, cell-based; conditions: U-937, 72 h
[44] = tested on: PC-3; test: Cytotoxicity against human PC-3 cells assessed as reduction in cell viability measured after 72 hrs by MTT assay; type: functional, cell-based; conditions: PC-3, 72 h
[45] = tested on: NCI-H460; test: Cytotoxicity against human NCI-H460 cells assessed as reduction in cell viability incubated for 48 hrs by MTT assay; type: functional, cell-based; conditions: NCI-H460, 48 h
[46] = tested on: NCI-H23; test: Cytotoxicity against human NCI-H23 cells assessed as reduction in cell viability incubated for 48 hrs by MTT assay; type: functional, cell-based; conditions: NCI-H23, 48 h
[47] = tested on: A549; test: Cytotoxicity against human A549 cells assessed as reduction in cell viability measured after 24 hrs by MTT assay; type: functional, cell-based; conditions: A549, 24 h
[48] = Cytotoxicity against human BEAS-2B cells incubated for 72 hrs measured by MTT assay; type: toxicity, cell-based

C=CC(C)(C)[C@@]12C[C@H]3C(=O)N[C@@H](Cc4ccccc4)C(=O)N3[C@@H]1N([C@H]1O[C@]3(C[C@@H]1NC(=O)/C=C/C(C)CC(C)CCCCCC)[C@@H]1O[C@@H]1[C@](O)(CC(C)=O)[C@@H]1O[C@@H]13)c1ccccc12 (stereo partly specified)
IC50 [1]: 9.5 µM
IC50 [2]: 11.4 µM
IC50 [3]: 5.4 µM
IC50 [4]: 8 µM
IC50 [5]: 5.4 µM

CC(=O)O[C@H]1C=CC=C2C[C@]34SS[C@](CO)(C(=O)N3[C@@H]21)N(C)C4=O
IC50 [6]: 4.49 µM
IC50 [7]: 890 nM
IC50 [8]: 1240 nM
IC50 [9]: 250 nM
IC50 [10]: 220 nM
IC50 [11]: 320 nM
IC50 [12]: 490 nM
IC50 [13]: 250 nM
IC50 [14]: 220 nM
IC50 [15]: 320 nM
IC50 [16]: 490 nM

COc1cc2c(cc1O)CCN[C@@]21CS[C@@H]2c3c(OC(C)=O)c(C)c4c(c3[C@H](COC1=O)N1[C@@H]2[C@H]2c3c(cc(C)c(OC)c3O)C[C@@H]([C@@H]1O)N2C)OCO4
IC50 [17]: 1.6 nM
IC50 [18]: 1.1 nM
IC50 [19]: 0.9 nM
IC50 [20]: 1.5 nM
IC50 [21]: 200 nM
IC50 [22]: 0.2 ng/mL (≈ 0.000263 µM)
IC50 [23]: 0.5 ng/mL (≈ 0.000656 µM)
IC50 [24]: 5 ng/mL (≈ 0.00656 µM)

CO[C@H]1CC(=O)[C@@H]2C[C@@]34SS[C@]5(C[C@H]6C(=O)C[C@H](OC)[C@H](O)[C@H]6N5C3=O)C(=O)N4[C@@H]2[C@H]1O
IC50 at 72 h [25]: 4.88 µM

COC1=C(C)C(=O)C2=C(C1=O)[C@H]1[C@@H]3CC4=C(C(=O)C(OC)=C(C)C4=O)[C@H](COC(C)=O)N3[C@@H](O)[C@@H](C2)N1C
IC50 [26]: 0.0125 µg/mL (≈ 0.0237 µM)
IC50 [27]: 0.0125 µg/mL (≈ 0.0237 µM)
IC50 [28]: 0.0125 µg/mL (≈ 0.0237 µM)
IC50 [29]: 0.0125 µg/mL (≈ 0.0237 µM)
IC50 [30]: 2.5 nM
IC50 [31]: 0.57 nM
IC50 [32]: 0.76 nM
IC50 [33]: 0.49 nM

C=CC(C)(C)c1[nH]c2ccccc2c1/C=C1\NC(=O)[C@@]2(CC[C@]3(O)c4cc(C)cc(O)c4C(=O)c4c(O)cc(OC)c2c43)NC1=O
IC50 [34]: 30.1 µM
IC50 [35]: 37.3 µM

CC(C)=CCC/C(C)=C/COc1ccc(/C=C2/NC(=O)[C@H](C)N(O)C2=O)cc1
IC50 [36]: 11.6 µg/mL (≈ 30.2 µM)
IC50 [37]: 11.6 µg/mL (≈ 30.2 µM)
IC50 [38]: 11.6 µg/mL (≈ 30.2 µM)

CCCCCCCCC[C@@H](CC(=O)NCCCCN)N1CC(=O)N(O)[C@H](Cc2ccccc2)C1=O
IC50 [39]: 37.9 µM
IC50 [40]: 39.5 µM
IC50 at 24 h [41]: 37.5 µM

CS[C@H]1C(=O)N2[C@H]3Nc4ccccc4[C@@]3(c3c[nH]c4ccccc34)[C@H](O)[C@]2(SC)C(=O)N1C [BIONECTIN C]
EC50 [42]: 6.5 µg/mL (≈ 13.5 µM)

CS[C@]1(CO)C(=O)N2[C@H]3C(=CC=C[C@@H]3O)C[C@@]2(SC)C(=O)N1C [BIS(DETHIO)BIS(METHYLTHIO)GLIOTOXIN]
IC50 [43]: 200 nM
IC50 [44]: 390 nM

COC1=C(C)C(=O)C2=C(C1=O)[C@@H]1[C@@H]3CC4=C(C(=O)C(OC)=C(C)C4=O)[C@H](CO)N3[C@@H](C#N)[C@H](C2)N1C [JOURNNAMYCIN A]
IC50 [31]: 13 nM
IC50 [45]: 8 µM
IC50 [46]: 2300 nM
IC50 [47]: 3.1 µM
IC50 at 72 h [48]: 14.8 µM
IC50 [32]: 59 nM
IC50 [33]: 29 nM
